Source: patent publication US11439648B2, “Use of topical BRAF inhibitor compositions for treatment of radiation dermatitis” (Lutris Pharma Ltd., priority 2019, dated 2022)

Tested on: MIA PaCa2 K-ras cells
Test: Proliferation of MIA PaCa cells (ATPlite proliferation kit)
Type: cell-based
Details: after 72 hours; concentration giving the highest proliferation (range 0.002 μM to 10 μM); starvation medium; average of 6 wells; presented as percent of over-proliferation vs DMSO control
Experimental: In this example, effect of the compounds on proliferation of MIA PaCa2 K-ras cells was studied. It was expected that the compounds that induce ERK phosphorylation would also induce proliferation of Mia PaCa cells.
The cells were seeded in starvation medium at 5000 cells/well in a 96 wells plate for 24 hours at 37° C., 5% CO2. The tested compounds were added at different concentrations ranging from 0.002 μM to 10 μM. The controls were untreated cells and vehicle of 0.1% DMSO. The cells were incubated at 37° C., 5% CO2, for 72 hours and then the proliferation was tested using the ATPlite proliferation kit (Perkin-Elmer). Each result represents an average of 6 wells. The results are presented as the percent of over-proliferation compared to the DMSO control.
The concentration of the compounds that provided the highest proliferation was compared to DMSO. DMSO was calculated as 100%.

Row | Structure (SMILES) | % proliferation compared to the DMSO control
1 | Cc1ccc2c(Nc3cccc(OC(F)(F)F)c3)nccc2c1Nc1ncccc1-c1ncnc2[nH]cnc12 [LUT014] | 116%
2 | Cc1ccc2c(Nc3ccc(Cl)cc3)nccc2c1Nc1ncccc1-c1ncnc2[nH]cnc12 [C-1] | 30%
3 | CCCS(=O)(=O)Nc1ccc(F)c(C(=O)c2c[nH]c3ncc(-c4ccc(Cl)cc4)cc23)c1F [Vemurafenib] | 12%
